Data published in patent US12077503B2, “Substituted cyclic amides and their use as herbicides” (FMC CORPORATION, priority 2015, dated 2024).

Columns and labels:
Format in all cases: in vivo
[1] = system: barnyardgrass (Echinochloa crus-galli); assay: Test G Pre-Emergence Protocol; conditions: Echinochloa crus-galli, pre-emergence, 312 h, evaluated after 13 days
Procedure, shortened: (§1)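 Pots of seeds in standard soil were grown for one day in a glasshouse (24/16 °C day/night, 14 h light, 65% humidity), then sprayed with compound in acetone/water 50:50 with 0.5% Tween 20 at 15.625, 62.5 or 250 g/ha. Damage was scored after 13 days on a 0 (none) to 100 (total) scale.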

[2] = system: redroot pigweed (Amaranthus retroflexus); assay: Test G Pre-Emergence Protocol; conditions: Amaranthus retroflexus, pre-emergence, 312 h, evaluated after 13 days
Procedure, shortened: as §1

corn (Zea mays) [3] = assay: Test G Pre-Emergence Protocol; conditions: Zea mays, pre-emergence, 312 h, evaluated after 13 days
Procedure, shortened: as §1

[4] = system: giant foxtail (Setaria faberi); assay: Test G Pre-Emergence Protocol; conditions: Setaria faberi, pre-emergence, 312 h, evaluated after 13 days
Procedure, shortened: as §1

[5] = system: ivy-leaved morning glory (Ipomoea hederacea); assay: Test G Pre-Emergence Protocol; conditions: Ipomoea, pre-emergence, 312 h, evaluated after 13 days
Procedure, shortened: as §1

[6] = system: velvetleaf (Abutilon theophrasti); assay: Test G Pre-Emergence Protocol; conditions: Abutilon theophrasti, pre-emergence, 312 h, evaluated after 13 days
Procedure, shortened: as §1

[7] = system: barnyardgrass (Echinochloa crus-galli); assay: Test G Post-Emergence Protocol; conditions: Echinochloa crus-galli, post-emergence, 312 h, read-out: Barnyardgrass damage rating
Procedure, shortened: (§2)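 Foliar application was made 8 days after sowing, using an aqueous spray of the active in acetone/water (50:50) with 0.5% Tween 20, at doses of 15.625, 62.5 or 250 g/ha. Injury was assessed 13 days later, where 100 meant the plant was fully damaged.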

[8] = system: redroot pigweed (Amaranthus retroflexus); assay: Test G Post-Emergence Protocol; conditions: Amaranthus retroflexus, post-emergence, 312 h, read-out: Pigweed, Redroot damage rating
Procedure, shortened: as §2

corn (Zea mays) [9] = assay: Test G Post-Emergence Protocol; conditions: Zea mays, post-emergence, 312 h, read-out: Corn damage rating
Procedure, shortened: as §2

[10] = system: giant foxtail (Setaria faberi); assay: Test G Post-Emergence Protocol; conditions: Setaria faberi, post-emergence, 312 h, read-out: Foxtail, Giant damage rating
Procedure, shortened: as §2

[11] = system: ivy-leaved morning glory (Ipomoea hederacea); assay: Test G Post-Emergence Protocol; conditions: Ipomoea, post-emergence, 312 h, read-out: Morningglory, Ivy-leaved damage rating
Procedure, shortened: as §2

[12] = system: velvetleaf (Abutilon theophrasti); assay: Test G Post-Emergence Protocol; conditions: Abutilon theophrasti, post-emergence, 312 h, read-out: Velvetleaf damage rating
Procedure, shortened: as §2

[13] = 15.625 g ai/ha, evaluated after 13 days (100=total damage to plant; 0=no damage to plant)
[14] = 62.5 g ai/ha, evaluated after 13 days, 100=total damage to plant, 0=no damage to plant
[15] = 250 g ai/ha, evaluated after 13 days, 100=total damage to plant, 0=no damage to plant

Cc1c[nH]nc1NC(=O)[C@@H]1C(=O)N(C)C[C@H]1c1ccc(C(F)(F)F)cc1 (racemic) [Compound 1660]
0%: pest or weed control at 15.625 g/ha ([1]; 15.625 g ai/ha, read-out: Barnyardgrass damage rating (100=total damage to plant; 0=no damage to plant)) | pest or weed control at 62.5 g/ha ([1]; 62.5 g ai/ha, 100=total damage to plant, 0=no damage to plant, read-out: Barnyardgrass damage rating) | pest or weed control at 250 g/ha ([1]; 250 g ai/ha, read-out: Barnyardgrass damage rating (100=total damage to plant; 0=no damage to plant)) | pest or weed control at 15.625 g/ha ([2]; 15.625 g ai/ha, read-out: Pigweed, Redroot damage rating (100=total damage to plant; 0=no damage to plant)) | pest or weed control at 62.5 g/ha ([2]; 62.5 g ai/ha, 100=total damage to plant, 0=no damage to plant, read-out: Pigweed, Redroot damage rating) | pest or weed control at 250 g/ha ([2]; 250 g ai/ha, read-out: Pigweed, Redroot damage rating (100=total damage to plant; 0=no damage to plant)) | plant injury at 15.625 g/ha (corn (Zea mays) [3]; 15.625 g ai/ha, read-out: Corn damage rating (100=total damage to plant; 0=no damage to plant)) | plant injury at 62.5 g/ha (corn (Zea mays) [3]; 62.5 g ai/ha, 100=total damage to plant, 0=no damage to plant, read-out: Corn damage rating) | plant injury at 250 g/ha (corn (Zea mays) [3]; 250 g ai/ha, read-out: Corn damage rating (100=total damage to plant; 0=no damage to plant)) | pest or weed control at 15.625 g/ha ([4]; 15.625 g ai/ha, read-out: Foxtail, Giant damage rating (100=total damage to plant; 0=no damage to plant)) | pest or weed control at 62.5 g/ha ([4]; 62.5 g ai/ha, 100=total damage to plant, 0=no damage to plant, read-out: Foxtail, Giant damage rating) | pest or weed control at 250 g/ha ([4]; 250 g ai/ha, read-out: Foxtail, Giant damage rating (100=total damage to plant; 0=no damage to plant)) | pest or weed control at 15.625 g/ha ([5]; 15.625 g ai/ha, read-out: Morningglory, Ivy-leaved damage rating (100=total damage to plant; 0=no damage to plant)) | pest or weed control at 62.5 g/ha ([5]; 62.5 g ai/ha, 100=total damage to plant, 0=no damage to plant, read-out: Morningglory, Ivy-leaved damage rating) | pest or weed control at 250 g/ha ([5]; 250 g ai/ha, read-out: Morningglory, Ivy-leaved damage rating (100=total damage to plant; 0=no damage to plant)) | pest or weed control at 15.625 g/ha ([6]; 15.625 g ai/ha, read-out: Velvetleaf damage rating (100=total damage to plant; 0=no damage to plant)) | pest or weed control at 62.5 g/ha ([6]; 62.5 g ai/ha, 100=total damage to plant, 0=no damage to plant, read-out: Velvetleaf damage rating) | pest or weed control at 250 g/ha ([6]; 250 g ai/ha, read-out: Velvetleaf damage rating (100=total damage to plant; 0=no damage to plant)) | pest or weed control at 15.625 g/ha [7, 13] | pest or weed control at 62.5 g/ha [7, 14] | pest or weed control at 250 g/ha [7, 15] | pest or weed control at 15.625 g/ha [8, 13] | pest or weed control at 62.5 g/ha [8, 14] | pest or weed control at 250 g/ha [8, 15] | plant injury at 15.625 g/ha (corn (Zea mays) [9]; [13]) | plant injury at 62.5 g/ha (corn (Zea mays) [9]; [14]) | plant injury at 250 g/ha (corn (Zea mays) [9]; [15]) | pest or weed control at 15.625 g/ha [10, 13] | pest or weed control at 62.5 g/ha [10, 14] | pest or weed control at 250 g/ha [10, 15] | pest or weed control at 15.625 g/ha [11, 13] | pest or weed control at 62.5 g/ha [11, 14] | pest or weed control at 250 g/ha [11, 15] | pest or weed control at 15.625 g/ha [12, 13] | pest or weed control at 62.5 g/ha [12, 14] | pest or weed control at 250 g/ha [12, 15]
